Measurements taken from patent US10676479B2, “Imidazolepyridine compounds and uses thereof” (Novartis AG, priority 2016, dated 2020).

What was measured:
[1] = target: EED (1-441)-His protein (Homo sapiens (Human), UniProt O75530); assay: EED-H3K27Me3 peptide competition binding assay by AlphaScreen; conditions: EED Alphascreen binding Qualified assay
Experimental: Then 4 μL of detection beads mix was added to the plate and incubate in the dark at the rt for 1 h. The final concentration of donor and acceptor beads was 10 μg/mL for each. […] The data were then fit to a dose response equation using the program Helios (Novartis) to get the IC50 values. […] Sebaugh, J. […] Each compound was counter screened to determine if it interfered with the AlphaScreen beads. […] The plates were then incubated for 1 h at rt in dark before being read on EnVison.

[2] = target: wild type PRC2 (wtPRC2) complex (Homo sapiens (Human), UniProt O75530); assay: EED LC-MS assay; format: biochemical; conditions: EED LC-MS Qualified assay; read-out: (b) IC50
Sequence of wild type PRC2 (wtPRC2) complex (O75530 whole entry): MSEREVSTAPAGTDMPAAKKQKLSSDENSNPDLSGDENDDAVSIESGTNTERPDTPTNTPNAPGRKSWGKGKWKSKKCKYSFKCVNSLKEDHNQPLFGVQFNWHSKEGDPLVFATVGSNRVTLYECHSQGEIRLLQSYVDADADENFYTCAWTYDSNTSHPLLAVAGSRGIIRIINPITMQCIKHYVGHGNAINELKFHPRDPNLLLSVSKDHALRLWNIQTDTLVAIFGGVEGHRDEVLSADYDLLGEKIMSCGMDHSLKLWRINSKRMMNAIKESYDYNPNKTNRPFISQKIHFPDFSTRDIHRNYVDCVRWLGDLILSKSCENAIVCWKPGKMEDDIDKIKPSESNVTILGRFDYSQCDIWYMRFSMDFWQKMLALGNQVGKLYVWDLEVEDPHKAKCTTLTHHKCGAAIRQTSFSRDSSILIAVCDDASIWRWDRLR
Sequence of wild type PRC2 (wtPRC2) complex (Q15910 whole entry partner): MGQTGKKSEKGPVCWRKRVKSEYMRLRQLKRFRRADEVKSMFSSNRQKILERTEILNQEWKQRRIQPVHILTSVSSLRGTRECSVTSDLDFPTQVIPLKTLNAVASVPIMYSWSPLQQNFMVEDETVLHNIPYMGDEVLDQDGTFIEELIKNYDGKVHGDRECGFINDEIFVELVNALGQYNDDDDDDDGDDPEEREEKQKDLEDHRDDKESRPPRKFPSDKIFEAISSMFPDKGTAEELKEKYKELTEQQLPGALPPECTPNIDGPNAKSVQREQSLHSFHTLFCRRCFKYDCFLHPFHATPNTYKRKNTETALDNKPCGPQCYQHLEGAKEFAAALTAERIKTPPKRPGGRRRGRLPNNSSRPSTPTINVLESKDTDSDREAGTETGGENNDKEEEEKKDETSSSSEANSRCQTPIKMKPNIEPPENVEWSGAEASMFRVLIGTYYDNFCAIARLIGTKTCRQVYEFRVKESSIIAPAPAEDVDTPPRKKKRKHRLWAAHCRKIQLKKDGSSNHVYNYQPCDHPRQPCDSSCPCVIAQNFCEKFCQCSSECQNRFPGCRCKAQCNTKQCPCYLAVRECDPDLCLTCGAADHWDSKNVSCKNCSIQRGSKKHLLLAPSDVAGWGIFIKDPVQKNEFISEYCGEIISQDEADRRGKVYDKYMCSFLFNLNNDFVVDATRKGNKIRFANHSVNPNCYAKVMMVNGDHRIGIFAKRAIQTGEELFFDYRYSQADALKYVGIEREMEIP
Sequence of wild type PRC2 (wtPRC2) complex (Q15022 whole entry partner): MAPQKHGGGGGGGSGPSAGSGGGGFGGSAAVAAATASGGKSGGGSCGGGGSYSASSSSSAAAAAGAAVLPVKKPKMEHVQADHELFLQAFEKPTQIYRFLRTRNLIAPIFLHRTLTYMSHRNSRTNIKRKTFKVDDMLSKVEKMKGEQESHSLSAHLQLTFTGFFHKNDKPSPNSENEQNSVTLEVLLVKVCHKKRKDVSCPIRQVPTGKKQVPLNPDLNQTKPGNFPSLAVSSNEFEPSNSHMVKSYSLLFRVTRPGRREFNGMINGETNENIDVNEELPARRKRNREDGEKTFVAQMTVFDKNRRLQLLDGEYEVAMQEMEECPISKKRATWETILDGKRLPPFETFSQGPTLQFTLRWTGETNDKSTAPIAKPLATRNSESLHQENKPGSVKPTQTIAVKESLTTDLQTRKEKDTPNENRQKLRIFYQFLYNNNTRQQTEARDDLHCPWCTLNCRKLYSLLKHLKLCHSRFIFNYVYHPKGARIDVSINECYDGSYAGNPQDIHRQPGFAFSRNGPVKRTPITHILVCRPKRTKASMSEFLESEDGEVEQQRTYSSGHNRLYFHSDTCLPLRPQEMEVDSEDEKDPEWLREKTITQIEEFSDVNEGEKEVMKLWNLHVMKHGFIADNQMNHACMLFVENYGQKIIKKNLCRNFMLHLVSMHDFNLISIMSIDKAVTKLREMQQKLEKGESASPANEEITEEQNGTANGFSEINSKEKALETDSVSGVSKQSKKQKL
Experimental: EED LC-MS Assay Representative compounds of the present invention were serially and separately diluted 3-fold in DMSO to obtain a total of eight or twelve concentrations. […] A 6 μL solution of 3 μM of the peptide substrate H3K27Me0 (histone H3[21-44]-biotin) in reaction buffer was added to initiate each reaction. […] The data were then fit to a dose response equation using the program Helios to get the IC50 values of the test compound.

[3] = test system: H3K27 methylation in G401 cell; assay: ELISA (H3K27 methylation) assay; format: cell-based; conditions: Homo sapiens, G-401, ELISA Qualified assay, 48 h, read-out: (c) IC50
Experimental: ELISA (H3K27 Methylation) Assay
Representative compounds of the present invention were serially and separately diluted 3-fold in DMSO to obtain a total of eight or twelve concentrations. Then the compounds were added to G401 cell cultured in 384-well plate at 1:500 dilution to obtain the highest concentration of 20 μM. The cells were further cultured for 48 h before ELISA procedure.
ELISA protocol: Cell lysates were transferred to the wells of a 384-well plate and the final volume was adjusted to 50 μL per well with PBS. The plate was sealed, centrifuged at 2,000 rpm for 2 min and incubated at 4° C. for about 16 h. The plate was washed with TBST buffer (1×TBS (10×TBS: 24.2 g Tris (Sigma, T6066), 80 g NaCl (Sigma, S3014) to 1 L of water and adjust pH to 7.6 with HCl) with 0.1% Tween-20). Blocking buffer (TBST, 5% BSA; 50 μL per well) was added and the plate was incubated for 1 h at rt. The blocking buffer was removed and primary antibody was added (30 μL per well). […] The primary antibody was incubated in the plate at rt for 1 h. The wells were washed with TBST and incubated with secondary antibody for 1 h at rt. […] After 1 h of incubation at rt, the wells were washed with TBST. […] The signal was read using a PerkinElmer Envision Reader. The H3K27 methylation readouts were normalized using H3 signal and then percentage inhibition was calculated against the samples treated with DMSO. The data were then fit to a dose response curve using the program Helios to get the IC50 values of the test compound.

Sequence of EED (1-441)-His protein (O75530 whole entry): as the sequence (O75530 whole entry) above

Structure (SMILES) | IC50 [1] | IC50 [2] | IC50 [3]
Cc1ncc(-c2cnc(NCc3c(F)ccc4c3CCO4)n3cnc(-c4ncco4)c23)c(C)n1 [Example 11, 8-(2,4-dimethylpyrimidin-5-yl)-N-((5-fluoro-2,3-dihydrobenzofuran-4-yl)methyl)-1-(oxazol-2-yl)imidazo[1,5-c]pyrimidin-5-amine] | 12.6 nM | 17.1 nM | 6.9 nM
Fc1ccc2c(c1CNc1ncc(-c3cnccc3C(F)F)c3cncn13)CCO2 [Example 52, 8-(4-(difluoromethyl)pyridin-3-yl)-N-((5-fluoro-2,3-dihydrobenzofuran-4-yl)methyl)imidazo[1,5-c]pyrimidin-5-amine] | 10.2 nM | 17.8 nM | 42.5 nM
Fc1ccc2c(c1CNc1ncc(-c3ccc(CN4CCC4)cc3)c3cncn13)CCO2 [Example 55, 8-(4-(azetidin-1-ylmethyl)phenyl)-N-((5-fluoro-2,3-dihydrobenzofuran-4-yl)methyl)imidazo[1,5-c]pyrimidin-5-amine] | 3.3 nM | 13.7 nM | 37.4 nM
CS(=O)(=O)c1ccc(-c2cnc(NCc3c(F)ccc4c3CCO4)n3cncc23)cn1 [Example 22, N-((5-fluoro-2,3-dihydrobenzofuran-4-yl)methyl)-8-(6-(methylsulfonyl)pyridin-3-yl)imidazo[1,5-c]pyrimidin-5-amine] | 5.5 nM | 9.8 nM | 56.3 nM
CS(=O)(=O)c1ccc(-c2cnc(NCc3c(F)ccc4c3CCO4)n3cnc(C#N)c23)cn1 [Example 79, 5-(((5-fluoro-2,3-dihydrobenzofuran-4-yl)methyl)amino)-8-(6-(methylsulfonyl)pyridin-3-yl)imidazo[1,5-c]pyrimidine-1-carbonitrile] | 5.3 nM | 16.7 nM | 6.6 nM
C#Cc1ncn2c(NCc3c(F)ccc4c3CCO4)ncc(-c3cccnc3C)c12 [Example 12, 1-Ethynyl-N-((5-fluoro-2,3-dihydrobenzofuran-4-yl)methyl)-8-(2-methylpyridin-3-yl)imidazo[1,5-c]pyrimidin-5-amine] | 5.4 nM | 6.8 nM | 48.9 nM
CNC(=O)c1ncn2c(NCc3c(F)ccc4c3CCO4)ncc(-c3cccnc3C)c12 [Example 2, 5-(((5-Fluoro-2,3-dihydrobenzofuran-4-yl)methyl)amino)-N-methyl-8-(2-methylpyridin-3-yl)imidazo[1,5-c]pyrimidine-1-carboxamide] | 12.3 nM | 26.7 nM | 12.6 nM
OCCc1ccc(-c2cnc(NCc3c(F)ccc4c3CCO4)n3cncc23)cn1 [Example 34, 2-(5-(5-(((5-fluoro-2,3-dihydrobenzofuran-4-yl)methyl)amino)imidazo[1,5-c]pyrimidin-8-yl)pyridin-2-yl)ethan-1-ol] | 21.7 nM | 40.1 nM | 59.5 nM
CN(C)Cc1ccc(-c2cnc(NCc3c(F)ccc4occc34)n3cncc23)cc1 [Example 67, 8-(4-((dimethylamino)methyl)phenyl)-N-((5-fluorobenzofuran-4-yl)methyl)imidazo[1,5-c]pyrimidin-5-amine] | 57.6 nM | 70.3 nM | 350 nM
Cc1nc(S(C)(=O)=O)ccc1-c1cnc(NCc2c(F)ccc3c2CCO3)n2cncc12 [Example 38, N-((5-fluoro-2,3-dihydrobenzofuran-4-yl)methyl)-8-(2-methyl-6-(methylsulfonyl)pyridin-3-yl)imidazo[1,5-c]pyrimidin-5-amine] | 9.4 nM | 20.8 nM | 47.7 nM
Cc1ncc(-c2cnc(NCc3c(F)ccc4c3CCO4)n3cnc([S+]([O-])c4ccccc4)c23)c(C)n1 (stereo not drawn) [Example 14, 8-(2,4-Dimethylpyrimidin-5-yl)-N-((5-fluoro-2,3-dihydrobenzofuran-4-yl)methyl)-1-(phenylsulfinyl)imidazo[1,5-c]pyrimidin-5-amine] | 10.4 nM | 23.4 nM | 4.9 nM
NS(=O)(=O)c1ccc(-c2cnc(NCc3c(F)ccc4c3CCO4)n3cncc23)cc1 [Example 23, 4-(5-(((5-fluoro-2,3-dihydrobenzofuran-4-yl)methyl)amino)imidazo[1,5-c]pyrimidin-8-yl)benzenesulfonamide] | 12.7 nM | 12.9 nM | 33.6 nM
O=C(c1ccc(-c2cnc(NCc3c(F)ccc4c3CCO4)n3cncc23)cc1)N1CCCC1 [Example 37, (4-(5-(((5-fluoro-2,3-dihydrobenzofuran-4-yl)methyl)amino)imidazo[1,5-c]pyrimidin-8-yl)phenyl)(pyrrolidin-1-yl)methanone] | 16.2 nM | 41.9 nM | 81.9 nM
Fc1ccc2c(c1CNc1ncc(-c3cccnc3C(F)F)c3cncn13)CCO2 [Example 51, 8-(2-(difluoromethyl)pyridin-3-yl)-N-((5-fluoro-2,3-dihydrobenzofuran-4-yl)methyl)imidazo[1,5-c]pyrimidin-5-amine] | 5.2 nM | 9.4 nM | 6.4 nM
CS(=O)(=O)c1cccc(-c2cnc(NCc3c(F)ccc4c3CCO4)n3cncc23)c1 [Example 27, N-((5-fluoro-2,3-dihydrobenzofuran-4-yl)methyl)-8-(3-(methylsulfonyl)phenyl)imidazo[1,5-c]pyrimidin-5-amine] | 24.1 nM | 23.5 nM | 43 nM
Cc1nc(C(F)(F)CO)ccc1-c1cnc(NCc2c(F)ccc3c2CCO3)n2cncc12 [Example 56, 2,2-difluoro-2-(5-(5-(((5-fluoro-2,3-dihydrobenzofuran-4-yl)methyl)amino)imidazo[1,5-c]pyrimidin-8-yl)-6-methylpyridin-2-yl)ethan-1-ol] | 4.8 nM | 18.2 nM | 20.9 nM
Cc1ncc(-c2cnc(NCc3c(F)ccc4c3CCO4)n3cnc(S(C)(=O)=O)c23)c(C)n1 [Example 101, 8-(2,4-dimethylpyrimidin-5-yl)-N-((5-fluoro-2,3-dihydrobenzofuran-4-yl)methyl)-1-(methylsulfonyl)imidazo[1,5-c]pyrimidin-5-amine] | 3.6 nM | 13.3 nM | 9.1 nM
CN1CCN(c2ccc(-c3cnc(NCc4c(F)ccc5c4CCO5)n4cncc34)cn2)CC1 [Example 40, N-((5-fluoro-2,3-dihydrobenzofuran-4-yl)methyl)-8-(6-(4-methylpiperazin-1-yl)pyridin-3-yl)imidazo[1,5-c]pyrimidin-5-amine] | 17.7 nM | 28.2 nM | 66 nM
Cc1ncccc1-c1cnc(NCc2c(F)ccc3c2CCO3)n2cnc(CO)c12 [Example 120, (5-(((5-fluoro-2,3-dihydrobenzofuran-4-yl)methyl)amino)-8-(2-methylpyridin-3-yl)imidazo[1,5-c]pyrimidin-1-yl)methanol] | 11.4 nM | 24.1 nM | 15.6 nM
Cc1ncccc1-c1ncn2c(NCc3c(F)ccc4c3CCO4)ncc(-c3ccc(S(C)(=O)=O)cc3)c12 [Example 112, N-((5-fluoro-2,3-dihydrobenzofuran-4-yl)methyl)-1-(2-methylpyridin-3-yl)-8-(4-(methylsulfonyl)phenyl)imidazo[1,5-c]pyrimidin-5-amine] | 10.5 nM | 12.1 nM | 13.1 nM
Cc1ncc(-c2cnc(NCc3c(F)ccc4c3CCO4)n3cnc(C#N)c23)c(C)n1 [Example 3, 8-(2,4-dimethylpyrimidin-5-yl)-5-(((5-fluoro-2,3-dihydrobenzofuran-4-yl)methyl)amino)imidazo[1,5-c]pyrimidine-1-carbonitrile] | 6.8 nM | 13.7 nM | 13.2 nM
CCS(=O)(=O)c1ncn2c(NCc3c(F)ccc4c3CCO4)ncc(-c3cnc(C)nc3C)c12 [Example 104, 8-(2,4-dimethylpyrimidin-5-yl)-1-(ethylsulfonyl)-N-((5-fluoro-2,3-dihydrobenzofuran-4-yl)methyl)imidazo[1,5-c]pyrimidin-5-amine] | 3 nM | 10.5 nM | 2.1 nM
Cc1ccc(-c2ncn3c(NCc4c(F)ccc5c4CCO5)ncc(-c4cccnc4C)c23)cn1 [Example 115, N-((5-fluoro-2,3-dihydrobenzofuran-4-yl)methyl)-8-(2-methylpyridin-3-yl)-1-(6-methylpyridin-3-yl)imidazo[1,5-c]pyrimidin-5-amine] | 6.2 nM | 17.6 nM | 4 nM
